Measurements from PMC8781238 (European journal of medicinal chemistry, 2020).
pIC50, pKi: −log10 of the molar value. Entries after “also recorded” stand apart in the source; their conditions may differ.

Experiments:
[1] = tested on: U-251 MG human glioblastoma cells; experiment: In vitro cell viability assay; format: cell-based; conditions: 125 µM, 24 hours incubation; for Antitumor activity on U-251 MG cell viability (in words): compared with compound 7 (ABC294640)
SphK1 = conditions: read-out: SphK1 IC50; cited from earlier work
SphK2 = conditions: cited from earlier work
recombinant human SphK2 = biological target: T1, recombinant human SphK2 (Homo sapiens, UniProt Q9NRA0); experiment: ADP-Glo kinase assay, SphK2; conditions: comparison of SphK1 and SphK2 activity at 125 µM compound (Fig. 5)
T1 sequence (Q9NRA0 1-654): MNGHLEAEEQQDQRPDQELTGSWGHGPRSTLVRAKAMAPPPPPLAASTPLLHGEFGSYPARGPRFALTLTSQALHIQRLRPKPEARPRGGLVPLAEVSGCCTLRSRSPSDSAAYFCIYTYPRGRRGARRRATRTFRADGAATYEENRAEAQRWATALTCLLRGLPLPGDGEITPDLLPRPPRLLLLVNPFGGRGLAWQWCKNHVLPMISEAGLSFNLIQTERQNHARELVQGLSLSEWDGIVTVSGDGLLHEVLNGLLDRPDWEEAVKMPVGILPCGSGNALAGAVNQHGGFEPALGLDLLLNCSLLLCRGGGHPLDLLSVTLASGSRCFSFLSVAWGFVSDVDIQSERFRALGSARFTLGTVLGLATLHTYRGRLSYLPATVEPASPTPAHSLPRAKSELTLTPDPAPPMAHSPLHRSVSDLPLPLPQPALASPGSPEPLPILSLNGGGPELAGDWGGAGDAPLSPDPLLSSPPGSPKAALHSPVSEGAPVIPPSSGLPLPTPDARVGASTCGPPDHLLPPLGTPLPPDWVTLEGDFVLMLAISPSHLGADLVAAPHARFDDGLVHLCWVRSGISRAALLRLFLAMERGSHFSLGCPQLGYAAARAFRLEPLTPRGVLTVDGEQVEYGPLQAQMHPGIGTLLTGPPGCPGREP

Row | Compound | Antitumor activity on U-251 MG cell viability (in words) [1] | Selectivity/specificity for SphK2 over SphK1 (in words) (recombinant human SphK2) | other results
1 | O=C(NCc1ccncc1)C12CC3CC(C1)CC(c1ccc(Cl)cc1)(C3)C2 [Compound 7] |  |  | Reduction of cell viability of U-251 MG cells [1]: approximately 50%; pIC50 (SphK1): ≤ 4.00; pIC50 (SphK2; read-out: SphK2 IC50): ~4.22
2 | N=C(N)N1CCC[C@H]1Cc1nc(-c2ccc(Nc3nc(-c4cccc(C(F)(F)F)c4)cs3)cc2)no1 [Compound 13] |  |  | pKi (SphK2; read-out: SphK2 Ki): 7.05
3 | Cl.N=C(N)N1CCC[C@H]1Cc1nc(-c2ccc(Cn3cc(-c4ccccc4)nn3)cc2)no1 [Compound 21a, (S)-2-((3-(4-((4-Phenyl-1H-1,2,3-triazol-1-yl)methyl)phenyl)-1,2,4-oxadiazol-5yl)methyl)pyrrolidine-1-carboximidamide hydrochloride] | highest anti-tumor activity; also recorded: strongest antitumor activity |  | 
4 | Cl.N=C(N)N1CCC[C@H]1Cc1nc(-c2ccc(Cn3cc(-c4ccc(C(F)(F)F)cc4)nn3)cc2)no1 [Compound 21b, (S)-2-((3-(4-((4-(4-(Trifluoromethyl)phenyl)-1H-1,2,3-triazol-1-yl)methyl)phenyl)-1,2,4-oxadiazol-5-yl)methyl)-pyrrolidine-1-carboximidamide hydrochloride] | highest anti-tumor activity; also recorded: strongest antitumor activity | lowest specificity; also recorded: no selective | 
5 | Cl.N=C(N)N1CCC[C@H]1Cc1nc(-c2ccc(Cn3cc(-c4ccccn4)nn3)cc2)no1 [Compound 21c, (S)-2-((3-(4-((4-(Pyridin-2-yl)-1H-1,2,3-triazol-1-yl)methyl)phenyl)-1,2,4-oxadiazol-5-yl)methyl)pyrrolidine-1-carboximidamide hydrochloride] |  | high selectivity; also recorded: highest specificity | 
6 | CCCCc1cn(Cc2ccc(-c3noc(C[C@@H]4CCCN4C(=N)N)n3)cc2)nn1.Cl [Compound 21d, (S)-2-((3-(4-((4-Butyl-1H-1,2,3-triazol-1-yl)methyl)phenyl)-1,2,4-oxadiazol-5-yl)methyl)pyrrolidine-1-carboximidamide hydrochloride] |  | lowest specificity; also recorded: no selective | 
7 | COc1ccc(-c2cn(Cc3ccc(-c4noc(C[C@@H]5CCCN5C(=N)N)n4)cc3)nn2)cc1.Cl [Compound 21e, (S)-2-((3-(4-((4-(4-Methoxyphenyl)-1H-1,2,3-triazol-1-yl)methyl)phenyl)-1,2,4-oxadiazol-5-yl)methyl)pyrrolidine-1-carboximidamide hydrochloride] | comparable reduction of viability | high selectivity; also recorded: highest specificity | 
8 | Cl.N=C(N)N1CCC[C@H]1Cc1nc(-c2ccc(Cn3cc(C4CC4)nn3)cc2)no1 [Compound 21f, (S)-2-((3-(4-((4-Cyclopropyl-1H-1,2,3-triazol-1-yl)methyl)phenyl)-1,2,4-oxadiazol-5-yl)methyl)pyrrolidine-1-carboximidamide hydrochloride] |  | lowest specificity; also recorded: no selective | 
9 | Cl.Cn1cc(-c2cn(Cc3ccc(-c4noc(C[C@@H]5CCCN5C(=N)N)n4)cc3)nn2)cn1 [Compound 21g, (S)-2-((3-(4-((4-(1-Methyl-1H-pyrazol-4-yl)-1H-1,2,3-triazol-1-yl)methyl)phenyl)-1,2,4-oxadiazol-5-yl)methyl)pyrrolidine-1-carboximidamide hydrochloride] |  | high selectivity; also recorded: highest specificity | 
10 | Cl.N=C(N)N1CCC[C@H]1c1nc(-c2ccc(Cn3cc(-c4ccc(C(F)(F)F)cc4)nn3)cc2)no1 [Compound 25b] | highest anti-tumor activity; also recorded: tremendously decrease the viability; also recorded: strongest antitumor activity; also recorded: higher antitumor activity |  | 
11 | Cl.N=C(N)N1CCC[C@H]1c1nc(-c2ccc(Cn3cc(-c4ccccn4)nn3)cc2)no1 [Compound 25c, (S)-2-(3-(4-((4-(Pyridin-2-yl)-1H-1,2,3-triazol-1-yl)methyl)phenyl)-1,2,4-oxadiazol-5-yl)pyrrolidine-1-carboximidamide hydrochloride] |  | lowest specificity | 
12 | COc1ccc(-c2cn(Cc3ccc(-c4noc([C@@H]5CCCN5C(=N)N)n4)cc3)nn2)cc1.Cl [Compound 25d] | comparable reduction of viability |  | 
13 | CCCCc1cn(Cc2ccc(-c3noc([C@@H]4CCCN4C(=N)N)n3)cc2)nn1.Cl [Compound 25f] |  | high selective | 
14 | Cl.N=C(N)N1CCC[C@H]1c1nc(-c2ccc(Cn3cc(C4CC4)nn3)cc2)no1 [Compound 25h] |  | high selective | 
15 | Cl.N=C(N)C1(c2nc(-c3ccc(Cn4cc(-c5ccccc5)nn4)cc3)no2)CC1 [Compound 29a, 1-(3-(4-((4-Phenyl-1H-1,2,3-triazol-1-yl)methyl)phenyl)-1,2,4-oxadiazol-5-yl)cyclopropanecarboximidamide hydrochloride] |  | highly selective | 
16 | Cl.Cn1cc(-c2cn(Cc3ccc(-c4noc(C5(C(=N)N)CC5)n4)cc3)nn2)cn1 [Compound 29b] |  | highly selective | 
